Where a name gives a salt, the structure may show the parent alone.

One assay deals with WT S1PR2 (Homo sapiens, UniProt O95136). Kind of assay: Label-free DMR agonist response, HEK293T expressing WT S1PR2. It counts as cell-based.
Another assay has as its target ΔPDZ S1PR2 (Homo sapiens, UniProt O95136). Kind of assay: Label-free DMR agonist response, HEK293T expressing ΔPDZ S1PR2. The class given is cell-based.
The next assay deals with WT C3AR1 (Homo sapiens, UniProt Q16581). As to the kind of experiment: Label-free DMR agonist response, HEK293T expressing WT C3AR1. It counts as cell-based.
The next assay addresses ΔPDZ C3AR1 (Homo sapiens, UniProt Q16581). Kind of assay: Label-free DMR agonist response, HEK293T expressing ΔPDZ C3AR1. The class given is cell-based.
A further assay has as its target WT HRH3 (Homo sapiens, UniProt Q9Y5N1). As to conditions: HEK293T.
The next assay deals with ΔPDZ HRH3 (Homo sapiens, UniProt Q9Y5N1). As to conditions: HEK293T.
Sequence of ΔPDZ HRH3 (Q9Y5N1 1-449 isoform Q9Y5N1-2): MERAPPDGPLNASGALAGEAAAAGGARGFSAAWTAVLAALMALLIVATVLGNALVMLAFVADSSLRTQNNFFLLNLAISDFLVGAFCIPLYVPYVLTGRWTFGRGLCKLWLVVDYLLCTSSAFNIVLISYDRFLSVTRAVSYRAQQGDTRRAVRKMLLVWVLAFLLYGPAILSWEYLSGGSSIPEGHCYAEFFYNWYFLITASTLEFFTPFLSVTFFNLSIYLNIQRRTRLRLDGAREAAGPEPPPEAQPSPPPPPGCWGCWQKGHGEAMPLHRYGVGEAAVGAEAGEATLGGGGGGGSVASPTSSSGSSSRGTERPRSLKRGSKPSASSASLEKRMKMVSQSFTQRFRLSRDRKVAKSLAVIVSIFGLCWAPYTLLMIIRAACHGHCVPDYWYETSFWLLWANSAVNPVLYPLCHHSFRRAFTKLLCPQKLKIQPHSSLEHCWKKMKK

Sequence of WT HRH3 (Q9Y5N1 1-453 isoform Q9Y5N1-2): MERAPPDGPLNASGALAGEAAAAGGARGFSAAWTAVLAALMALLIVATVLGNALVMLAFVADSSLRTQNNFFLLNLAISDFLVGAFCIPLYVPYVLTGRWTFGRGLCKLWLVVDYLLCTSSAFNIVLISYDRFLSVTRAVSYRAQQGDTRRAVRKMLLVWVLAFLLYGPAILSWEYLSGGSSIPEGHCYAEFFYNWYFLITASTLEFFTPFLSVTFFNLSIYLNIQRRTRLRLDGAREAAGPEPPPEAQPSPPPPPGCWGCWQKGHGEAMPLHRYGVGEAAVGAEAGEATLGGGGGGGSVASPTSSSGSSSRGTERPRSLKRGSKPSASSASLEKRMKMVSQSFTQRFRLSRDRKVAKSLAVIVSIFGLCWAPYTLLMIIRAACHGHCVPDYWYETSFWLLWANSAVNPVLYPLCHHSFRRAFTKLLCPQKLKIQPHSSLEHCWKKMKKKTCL
Sequence of ΔPDZ S1PR2 (O95136 1-349 limits assumed, stated change not applied): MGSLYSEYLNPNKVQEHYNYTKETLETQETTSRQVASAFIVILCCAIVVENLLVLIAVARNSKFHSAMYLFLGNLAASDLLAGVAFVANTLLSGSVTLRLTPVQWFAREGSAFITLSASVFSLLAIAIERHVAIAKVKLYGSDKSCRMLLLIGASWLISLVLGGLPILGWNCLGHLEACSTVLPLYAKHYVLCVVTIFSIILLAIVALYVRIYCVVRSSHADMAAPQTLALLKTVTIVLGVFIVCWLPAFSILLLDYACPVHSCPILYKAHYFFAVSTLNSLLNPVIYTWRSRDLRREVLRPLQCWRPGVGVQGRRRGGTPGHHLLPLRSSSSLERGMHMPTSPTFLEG
Sequence of WT S1PR2 (O95136 whole entry): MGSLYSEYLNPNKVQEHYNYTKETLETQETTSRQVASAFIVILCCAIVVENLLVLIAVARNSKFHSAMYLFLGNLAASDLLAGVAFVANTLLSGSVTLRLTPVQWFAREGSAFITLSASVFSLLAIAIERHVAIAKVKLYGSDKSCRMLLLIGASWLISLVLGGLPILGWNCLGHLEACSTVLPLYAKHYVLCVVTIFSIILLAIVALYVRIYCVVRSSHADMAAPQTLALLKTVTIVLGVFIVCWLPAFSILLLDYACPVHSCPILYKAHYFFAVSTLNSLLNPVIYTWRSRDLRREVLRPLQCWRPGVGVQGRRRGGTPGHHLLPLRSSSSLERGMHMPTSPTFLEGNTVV
Sequence of ΔPDZ C3AR1 (Q16581 1-478 limits assumed, stated change not applied): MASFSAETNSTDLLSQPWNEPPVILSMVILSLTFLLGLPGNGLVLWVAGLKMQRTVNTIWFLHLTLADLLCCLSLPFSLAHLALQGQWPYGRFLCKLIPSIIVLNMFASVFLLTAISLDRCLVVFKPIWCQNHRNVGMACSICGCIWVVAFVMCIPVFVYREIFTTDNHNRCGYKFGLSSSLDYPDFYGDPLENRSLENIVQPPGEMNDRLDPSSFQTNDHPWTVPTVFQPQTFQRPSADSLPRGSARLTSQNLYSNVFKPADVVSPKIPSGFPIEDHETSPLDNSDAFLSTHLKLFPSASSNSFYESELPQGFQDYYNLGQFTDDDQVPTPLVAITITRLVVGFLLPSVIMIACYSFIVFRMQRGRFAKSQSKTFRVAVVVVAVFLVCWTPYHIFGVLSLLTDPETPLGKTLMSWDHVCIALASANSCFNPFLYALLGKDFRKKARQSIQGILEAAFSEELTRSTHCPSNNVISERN
Sequence of WT C3AR1 (Q16581 whole entry): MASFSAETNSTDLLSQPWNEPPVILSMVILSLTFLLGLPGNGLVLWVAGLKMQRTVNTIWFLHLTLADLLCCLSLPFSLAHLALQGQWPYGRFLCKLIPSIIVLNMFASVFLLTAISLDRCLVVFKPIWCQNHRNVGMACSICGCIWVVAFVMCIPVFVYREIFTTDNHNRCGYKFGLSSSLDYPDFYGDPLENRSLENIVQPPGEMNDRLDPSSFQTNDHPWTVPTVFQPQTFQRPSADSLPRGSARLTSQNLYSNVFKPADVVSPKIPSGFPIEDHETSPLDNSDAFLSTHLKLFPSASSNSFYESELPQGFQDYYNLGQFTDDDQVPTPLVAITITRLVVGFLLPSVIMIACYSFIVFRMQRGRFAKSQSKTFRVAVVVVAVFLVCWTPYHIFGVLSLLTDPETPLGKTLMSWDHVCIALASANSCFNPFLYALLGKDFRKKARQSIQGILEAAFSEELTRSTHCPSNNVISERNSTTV

Regarding `CCCCCCCCCCCCC/C=C/[C@@H](O)[C@@H](N)COP(=O)(O)O` [Sphingosine-1-phosphate, sphingosine-1-phosphate], the “WT Max (DMR)” value at WT S1PR2 (WT S1PR2, maximal agonist DMR response) was −40.54 ± 3.76. Also, the “WT TTP” value at WT S1PR2 (WT S1PR2, time to peak DMR) came out at 17.61 s. Besides, at ΔPDZ S1PR2 (ΔPDZ S1PR2, maximal agonist DMR response), the “ΔPDZ Max (DMR)” value is recorded as −10.16 ± 4.91. Further, at ΔPDZ S1PR2 (ΔPDZ S1PR2, time to peak DMR), the “ΔPDZ TTP” value was determined as 16.31 s.
Regarding `NC(=O)Cc1ccccc1` [Benzeneacetamide, benzeneacetamide], the “WT Max (DMR)” value on WT C3AR1 (WT C3AR1, maximal agonist DMR response) was 36.90 ± 1.82. Also, on WT C3AR1 (WT C3AR1, time to peak DMR), the “WT TTP” value was 4.50 s. On ΔPDZ C3AR1 (ΔPDZ C3AR1, maximal agonist DMR response), the “ΔPDZ Max (DMR)” value is recorded as 38.77 ± 2.59. Further, the “ΔPDZ TTP” value at ΔPDZ C3AR1 (ΔPDZ C3AR1, time to peak DMR) worked out at 3.50 s.
Consider `NCCc1c[nH]cn1` [Histamine, histamine dihydrochloride], for which, on WT HRH3 (WT HRH3, maximal agonist DMR response), the “WT Max (DMR)” value is on record as 46.97 ± 3.71. Also, the “WT TTP” value at WT HRH3 (WT HRH3, time to peak DMR) was 7.30 s. Further, the “ΔPDZ Max (DMR)” value on ΔPDZ HRH3 (ΔPDZ HRH3, maximal agonist DMR response) is 60.19 ± 5.07. For the same compound, the “ΔPDZ TTP” value at ΔPDZ HRH3 (ΔPDZ HRH3, time to peak DMR) came out at 6.30 s.

These data come from publication PMC4775402 (Pharmacological research, 2016).
